# Counter-ions that a name gives are not always drawn.
# Tests used:
# [1] = biological target: T1, D2 receptors in striatum (Rattus norvegicus, UniProt P61169); assay: Binding of intravenously injected radioligand in rat striatum, alone and co-injected with NPA (Examples 2 and 3); type: in vivo, Sprague-Dawley rats
# T1 construct: from tissue; host or cells: striatum of Sprague-Dawley rats (in vivo labelling)
# Excerpt: In describing and validating the method of the present invention using rats instead of humans, there are certain considerations that should be noted. For example, each rat is not imaged, but is guillotined, and the striatum removed in order to measure the radioactivity in DPM/mg tissue, where DPM represents disintegrations per minute.
# Sprague-Dawley rats (275-300 g) were restrained in transparent polystyrene cages. The tail vein was warmed in warm water.
# [2] = biological target: D1 receptor (Homo sapiens, UniProt P21728); conditions: D1^High state; read-out: dissociation constant for the high-affinity state of the D1 receptor; cited from earlier work
# [3] = 25 μg/Kg NPA co-injected i.v., rats, n=6
# [4] = rat striatum, radioligand co-injected i.v. with NPA 25 μg/kg
# T1 sequence (P61169 whole entry): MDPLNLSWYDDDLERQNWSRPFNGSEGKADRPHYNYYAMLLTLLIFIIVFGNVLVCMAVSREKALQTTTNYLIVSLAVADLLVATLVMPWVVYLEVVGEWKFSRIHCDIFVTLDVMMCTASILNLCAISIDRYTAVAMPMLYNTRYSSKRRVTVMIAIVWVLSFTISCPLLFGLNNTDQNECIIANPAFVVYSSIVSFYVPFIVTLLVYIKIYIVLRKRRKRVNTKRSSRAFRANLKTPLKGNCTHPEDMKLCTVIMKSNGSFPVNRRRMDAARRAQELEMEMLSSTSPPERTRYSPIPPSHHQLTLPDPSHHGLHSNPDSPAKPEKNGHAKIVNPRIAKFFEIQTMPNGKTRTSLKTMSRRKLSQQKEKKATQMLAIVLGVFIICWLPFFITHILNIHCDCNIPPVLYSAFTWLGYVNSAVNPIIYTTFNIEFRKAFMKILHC
# Chain of D1 receptor (P21728 whole entry): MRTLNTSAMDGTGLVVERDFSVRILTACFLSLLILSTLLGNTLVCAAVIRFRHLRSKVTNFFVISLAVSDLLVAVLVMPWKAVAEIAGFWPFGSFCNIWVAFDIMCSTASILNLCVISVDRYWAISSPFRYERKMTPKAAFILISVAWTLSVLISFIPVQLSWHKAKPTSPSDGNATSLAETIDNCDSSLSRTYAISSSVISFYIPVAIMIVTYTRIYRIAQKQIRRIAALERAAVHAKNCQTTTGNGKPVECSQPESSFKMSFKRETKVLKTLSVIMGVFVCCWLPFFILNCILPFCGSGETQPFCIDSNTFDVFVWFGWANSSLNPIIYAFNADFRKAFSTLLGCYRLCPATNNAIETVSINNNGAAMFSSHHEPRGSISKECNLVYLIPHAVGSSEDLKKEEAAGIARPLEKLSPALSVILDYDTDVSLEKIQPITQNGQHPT
compound,measurement,setting,value
"CCCN1CCc2cccc3c2[C@H]1Cc1ccc(O)c(O)c1-3 [NPA, N-propyl-norapomorphine]","binding of radioactive raclopride, level of the control value","[1]; 25 μg/Kg NPA co-injected i.v., rats, mean ±s.e., n=6, P=0.0004 vs (+)PHNO",61%±2.9 % of the control value
same,"binding of radioactive (+)PHNO, level of the control value",[1]; [3],46 % of the control value
same,inhibition of the binding of radioactive raclopride,[1]; [3],39%
same,inhibition of the binding of radioactive (+)PHNO,"[1]; 25 μg/Kg NPA co-injected i.v., rats, n=6, representative experiment",54%
same,inhibition of the D2^High receptors,"[1]; normal rats, NPA 25 μg/kg i.v. co-injected with radioactive (+)PHNO",53%
CCN1CCC[C@H]1CNC(=O)c1c(O)c(Cl)cc(Cl)c1OC (racemic) [[^3H]Raclopride],Control,"[1]; rat striatum, 30 min after i.v. 0.1 nmol radioligand, no NPA",2.8 pmol/g
same,Control DPM/mg (total binding in striatum),"[1]; rat striatum, 30 min after i.v. 0.1 nmol radioligand, no NPA, n=6",37.9 DPM/mg
same,pmol/g Displaced by NPA,"[1]; rat striatum, NPA 25 μg/kg co-injected",1.09 pmol/g
same,With NPA,[1]; [4],1.71 pmol/g
same,With NPA DPM/mg,[1]; [4],23.13 DPM/mg
"CCCN1CCOC2c3cc(O)ccc3CCC21 (single isomer, unassigned; (+)) [(+)PHNO, (+)-4-propyl-9-hydroxy-2,3,4a,5,6,10b-hexahydro-4H-naphth[1,2b][1,4]oxazine HCl]",Kd,[2],80 nM

# Reference: patent publication US20080181848A1 (priority 2004, published 2008)
